Measurements as given in paper PMC4995014, “Identification of ABC Transporter Interaction of a Novel Cyanoquinoline Radiotracer and Implications for Tumour Imaging by Positron Emission Tomography” (PLoS ONE, 2016).

Columns and labels:
Type in all cases: cell-based
MCF7 cells = experiment: SRB cell viability assay in MCF7 cells; conditions: Homo sapiens, 72 h
Experimental: Cell viability by the sulforhodamine B (SRB) assay was used to assess cell growth and cytotoxicity of test compounds [29]. Cells were seeded at densities of 3,500 to 5,000 cells per well in 96 well plates overnight and pre-treated for 1 h with ABC transporter modulators: 10 μM fumitremorgin C (FTC; in MCF7MX and MCF7 cells), or 0.3 μM of zosuquidar (in 3T3 and 3T3-MDR1). Cells were then treated with test compounds for 72 h, at 37°C. After drug treatment, cells were fixed by addition of 50% trichloroacetic acid (TCA), and the plates washed and dried to allow staining with 0.4% solution of sulforhodamine B (Sigma) in 1% acetic acid for 30 minutes. Excess dye was removed upon washing with 1% acetic acid. Plates were dried and bound protein was solubilised upon addition of 150 μL of 10 mM Tris base buffer. Absorbance was measured at 540 nm using Thermo Multiskan-Ex plate reader. Cell viability versus compound concentration curves were plotted as a percentage of control cells. The concentration of drug that gave 50% inhibition in cell growth (GI50) was extrapolated from these curves using the sigmoid curve fit with variable slope in Prism (GraphPad Prism version 5.01, GraphPad Software, San Diego California USA). Three to six replicate wells were used for each drug concentration and experiments were carried out on three separate occasions for each compound.

EGFR L858R (H3255 cells) = target: T1, EGFR L858R (H3255 cells) (Homo sapiens, UniProt P00533, L858R); experiment: Inhibition of EGFR autophosphorylation (p-EGFR Y1068, western blot) in H3255 cells; conditions: 3 h incubation, EGF stimulated
T1 construct: host or cells: H3255
Experimental: (§1) Affinity of the cyanoquinolines for EGFR was established by measuring their inhibition of EGFR autophosphorylation via western blot. Cells were seeded in 6 well plates and following 24 h of growth, were subject to overnight serum starvation. The cells were then treated with increasing concentrations of cyanoquinolines prepared in serum free growth media from a DMSO stock (final DMSO concentration < 1%) for 3 h at 37°C, and stimulated for receptor autophosphorylation by addition of 100 ng/mL of EGF during the last 15 minutes of drug incubation. After 3 h the cells were placed on ice, media removed and then the cells were washed two times with ice cold phosphate buffered saline (PBS). Lysates were analysed by western blot to measure changes to p-EGFR Y1068.
Cells were collected into a microcentrifuge tube and sonicated for 30 seconds on ice. Cellular protein levels were assessed using a bicinchoninic acid (BCA) protein assay kit according to the manufacturer’s instructions (Thermo scientific). […] Samples were transferred to polyvinylidene difluoride (PVDF) membrane using Trans-Blot Turbo system BIO-RAD (Hercules, California, USA). […] The membranes were then incubated overnight with primary antibody prepared in 1% milk or 1% BSA in TBST. […] Membranes were washed a further three times for 10 minutes with TBST. […]

active mutant EGFR = experiment: Inhibition of EGFR autophosphorylation in active mutant EGFR expressing cell lines (H1650, PC9, H3255); conditions: H1650 (del 746–750), PC9 (del 746–750) and H3255 (L858R) cells; read-out: IC50 p-EGFR Y1068 in active mutant EGFR expressing cell lines
Experimental: as §1
(§2) Cell lysates were prepared by addition of radioimmunoprecipitation assay (RIPA) buffer (50mM Tris-HCl pH 7.2, 150mM NaCl, 1% NP40, 1% sodium deoxycholate, 0.1% sodium dodecyl sulfate) supplemented with 1 x protease and phosphatase inhibitor cocktail (1mM 4-(2-Aminoethyl)benzenesulfonylfluoride hydrochloride, 800 nM aprotinin, 50 μM bestatin, 15 μM E-64, 5μM EDTA, 20 μM leupeptin, 10 μM pepstatin A; Thermo scientific, Waltham, Massachusetts, USA). […] Cellular protein levels were assessed using a bicinchoninic acid (BCA) protein assay kit according to the manufacturer’s instructions (Thermo scientific). […]

wildtype EGFR = target: T2, wildtype EGFR (Homo sapiens, UniProt P00533); experiment: Inhibition of EGFR autophosphorylation in wildtype EGFR expressing A549 and H358 cells; conditions: read-out: IC50 p-EGFR Y1068 in wildtype EGFR expressing cells
T2 construct: host or cells: H358; A549
Experimental: as §1, §2

T1 sequence (P00533 25-1210 L858R): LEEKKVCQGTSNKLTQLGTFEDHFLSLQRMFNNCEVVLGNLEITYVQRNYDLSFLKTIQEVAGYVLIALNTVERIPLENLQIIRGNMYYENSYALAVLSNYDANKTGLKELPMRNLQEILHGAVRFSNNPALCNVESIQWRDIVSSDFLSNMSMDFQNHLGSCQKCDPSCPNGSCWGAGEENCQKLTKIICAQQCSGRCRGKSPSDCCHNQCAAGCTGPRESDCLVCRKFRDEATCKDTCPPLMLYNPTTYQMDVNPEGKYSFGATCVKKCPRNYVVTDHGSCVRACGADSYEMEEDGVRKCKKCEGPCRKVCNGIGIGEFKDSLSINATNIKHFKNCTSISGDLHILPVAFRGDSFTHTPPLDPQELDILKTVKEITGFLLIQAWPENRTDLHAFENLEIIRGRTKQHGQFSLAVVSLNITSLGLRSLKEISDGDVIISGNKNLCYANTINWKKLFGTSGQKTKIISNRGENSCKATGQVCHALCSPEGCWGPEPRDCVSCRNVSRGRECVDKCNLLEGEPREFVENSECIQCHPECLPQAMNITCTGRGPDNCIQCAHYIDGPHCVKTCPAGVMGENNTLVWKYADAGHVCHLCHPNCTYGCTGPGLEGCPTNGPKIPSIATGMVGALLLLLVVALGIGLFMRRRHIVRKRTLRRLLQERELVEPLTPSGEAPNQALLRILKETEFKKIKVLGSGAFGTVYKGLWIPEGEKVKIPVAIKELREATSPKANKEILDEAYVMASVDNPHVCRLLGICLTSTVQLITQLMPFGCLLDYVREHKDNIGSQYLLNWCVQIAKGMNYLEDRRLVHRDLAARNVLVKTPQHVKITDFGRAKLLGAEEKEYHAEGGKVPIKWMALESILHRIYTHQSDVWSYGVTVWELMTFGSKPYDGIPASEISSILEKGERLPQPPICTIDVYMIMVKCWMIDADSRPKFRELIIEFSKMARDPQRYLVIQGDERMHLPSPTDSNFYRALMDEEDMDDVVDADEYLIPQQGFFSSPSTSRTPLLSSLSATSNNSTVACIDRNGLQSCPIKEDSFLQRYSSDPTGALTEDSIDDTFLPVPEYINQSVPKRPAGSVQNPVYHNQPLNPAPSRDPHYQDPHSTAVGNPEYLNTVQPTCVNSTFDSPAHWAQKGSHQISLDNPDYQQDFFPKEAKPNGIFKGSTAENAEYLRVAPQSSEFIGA
T2 sequence (P00533 25-1210): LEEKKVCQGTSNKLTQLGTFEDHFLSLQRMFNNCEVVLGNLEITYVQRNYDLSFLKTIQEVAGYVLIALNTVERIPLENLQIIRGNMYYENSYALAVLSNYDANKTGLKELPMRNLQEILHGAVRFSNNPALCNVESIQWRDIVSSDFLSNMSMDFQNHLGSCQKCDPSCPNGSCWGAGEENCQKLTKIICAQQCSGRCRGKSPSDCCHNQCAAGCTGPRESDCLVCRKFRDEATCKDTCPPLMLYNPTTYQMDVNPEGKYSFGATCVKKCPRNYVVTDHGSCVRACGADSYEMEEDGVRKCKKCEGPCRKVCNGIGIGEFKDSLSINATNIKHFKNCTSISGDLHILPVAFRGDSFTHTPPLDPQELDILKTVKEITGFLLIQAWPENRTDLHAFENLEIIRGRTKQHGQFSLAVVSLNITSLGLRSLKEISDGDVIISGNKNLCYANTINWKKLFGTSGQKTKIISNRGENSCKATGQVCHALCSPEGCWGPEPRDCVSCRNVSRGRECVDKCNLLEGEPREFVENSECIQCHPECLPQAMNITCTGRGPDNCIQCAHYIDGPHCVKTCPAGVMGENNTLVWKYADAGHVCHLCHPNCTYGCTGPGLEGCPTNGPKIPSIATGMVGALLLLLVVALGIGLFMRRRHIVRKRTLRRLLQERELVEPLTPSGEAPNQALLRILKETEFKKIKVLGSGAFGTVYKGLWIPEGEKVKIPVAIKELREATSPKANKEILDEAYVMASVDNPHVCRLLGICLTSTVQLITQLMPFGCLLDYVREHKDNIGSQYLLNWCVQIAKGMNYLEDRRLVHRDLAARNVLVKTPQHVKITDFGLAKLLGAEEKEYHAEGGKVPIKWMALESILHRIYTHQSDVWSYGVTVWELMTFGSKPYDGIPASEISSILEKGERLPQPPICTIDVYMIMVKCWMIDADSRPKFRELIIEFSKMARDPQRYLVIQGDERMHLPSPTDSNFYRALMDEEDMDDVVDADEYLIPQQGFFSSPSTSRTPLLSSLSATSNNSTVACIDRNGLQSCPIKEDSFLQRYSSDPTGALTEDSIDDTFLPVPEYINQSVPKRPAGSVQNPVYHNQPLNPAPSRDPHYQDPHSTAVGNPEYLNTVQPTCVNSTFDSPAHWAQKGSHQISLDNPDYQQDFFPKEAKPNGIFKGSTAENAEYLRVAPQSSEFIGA

## CCOc1cc2ncc(C#N)c(Nc3ccc(F)c(Cl)c3)c2cc1NC(=O)/C=C/CNCc1cn(CCF)nn1 [FED6, (2E)-N-{4-[(3-chloro-4-fluorophenyl)amino]-3-cyano-7-ethoxyquinolin-6-yl}-4-({[1-(2-fluoroethyl)-1H-1,2,3-triazol-4-yl]methyl}amino)-but-2-enamide]
MCF7 cells; 1 h pre-treatment with 10 μM FTC
  GI50: 12.3 ± 7.1 µM
MCF7 cells; without FTC
  GI50: 12 ± 6.93 µM
EGFR L858R (H3255 cells)
  IC50: 0.008 µM
Active mutant EGFR
  IC50: 0.008 to 0.04 µM
Wildtype EGFR
  IC50: 0.6 to 0.7 µM
